The target of data set [1] is récepteurs β adrénergiques. As to the kind of experiment: displacement of [^3H]CGP 12177 previously bound on newborn rat cardiomyocytes. The following applies: read-out: CI50 (the source's name). It is filed as binding, rats nouveau-nés. The text has this: Dans cet exemple, on teste l'affinité du composé 6 marqué avec ^123I vis-à-vis des récepteurs β adrénergiques.
On étudie sur cardiomyocytes de rats nouveau-nés la capacité du composé 6 à déplacer le [^3H]CGP 12177 préalablement fixé sur les récepteurs.

Data set [2] is described as follows: octanol-water partition coefficient at room temperature. It is filed as physicochemical. Conditions: for COEFFICIENT DE PARTAGE OCTANOL-EAU: température ambiante.
A short description of data set [3]: radioactivity in organs after injection in the mouse (Example 10). It is filed as in vivo. Conditions: souris, 329.10^-12 mol. The text has this: Dans cet exemple, on teste chez la souris les propriétés du [^123I] - composé 6 comme traceur radioactif pour l'examen du myocarde.
Après injection de 500.10^-12 mol de [^123I]-composé 6, les animaux sont sacrifiés et les organes d'intérêt récupérés et comptés. Le tableau 3 qui suit reporte les valeurs de la radioactivité trouvée dans les organes ou liquides biologiques exprimées en pourcentage de la dose injectée par gramme d'organe. TABLEAU 3 :
Dans le tableau 4 qui suit, on a donné à titre comparatif les résultats obtenus lorsqu'on injecte 329.10^-12 mol de [^3H]CGP 12177.

The nature of data set [4]: biodistribution study in the mouse (Example 22). It is filed as in vivo, souris. Conditions: for Biodistribution Coeur / Biodistribution Poumon / Biodistribution Foie / Biodistribution Rein: souris swiss femelles, injection intraveineuse. On the procedure:
L'étude de la biodistribution des radioligands chez la souris, permet d'apprécier l'intensité relative de la fixation cardiaque de la molécule et son évolution dans le temps.
Après marquage à l'iode 123 et purification par CLHP 20µCi environ de produit sont mis en solution dans 5 ml d'une solution : éthanol 20%-sérum physiologique 80%. Après injection intraveineuse de 25 µl de cette solution dans la queue de souris vigiles (souris swiss femelles de 20 à 25 g), celles-ci (5 à chaque fois) sont sacrifiées à différents temps après l'injection. On mesure pour chaque souris les activités cardiaques, hépatique, rénale et pulmonaire. Les résultats sont exprimés en pourcentage de la dose injectée par gramme d'organe.
Le CGP12177 étant la référence, un lot de souris a été étudié après injection de CGP 12177 marqué au tritium.

Data set [5] concerns récepteurs β adrénergiques. As to the kind of experiment: isolated perfused rat heart (Langendorff), antagonism of isoprenaline on dP/dt max. On the procedure: Dans cet exemple, on teste la propriété pharmacologique antagoniste du composé 6 vis-à-vis des récepteurs β adrénergiques.
L'expérience est conduite sur coeur de rat isolé et perfusé selon la technique de Langendorff.
Après une préperfusion de 25 minutes avec une solution de Krebs-Henseleit, le coeur est perfusé avec de l'isoprénaline à la concentration de 10^-8M pendant 10 minutes; puis avec une solution d'isoprénaline à 10^-8M associée à la molécule à tester à la concentration de 10^-6M.
Si la molécule à tester diminue la dP/dt max en présence d'isoprénaline, on pourra affirmer que cette molécule se comporte comme un antagoniste de l'isoprénaline vis-à-vis des récepteurs β adrénergiques.

Where [6] appears, read: [^3H]CGP 12177 5.10^-9M, 30 minutes d'incubation, cardiomyocytes de rats nouveau-nés.

Consider four compounds from patent EP0767778B1, “1-PHENOXY-3-N-ALKYLAMINOPROPAN-2-OL HALOGEN DERIVATIVES USEFUL AS MYOCARDIAL beta [sequence] RECEPTOR MARKERS AND AS beta-BLOCKING AGENTS” (CIS BIO INTERNATIONAL, priority 1994, dated 1996).

Read-outs that look alike come from different tables or passages of the source.

Take `CC(C)NCC(O)COc1ccc(CC(N)=O)cc1` (centres unmarked) [atenolol, reference compound]: the IC50 in data set [1] (setting [6]) stood at 19000 nM.

“(2S)-4 (3-t-butylamino-2-hydroxypropoxy)-benzimidazol-2-one [[^3H]-CGP 12177, reference compound]”: the “COEFFICIENT DE PARTAGE OCTANOL-EAU” value was 0,0088 in data set [2] (pH=4,2) and 0,18 in data set [2] (pH=7,4). The “radioactivité COEUR” value in data set [3] (1 min) is 6,8±4 pourcentage de la dose injectée par gramme d'organe; in data set [3] (2 min) it was 6,3±0,3 pourcentage de la dose injectée par gramme d'organe; in data set [3] (5 min), 5,9±0,8 pourcentage de la dose injectée par gramme d'organe; in data set [3] (10 min), 5,3±0,2 pourcentage de la dose injectée par gramme d'organe. The “radioactivité POUMON” value in data set [3] (1 min) is 26,3±2,1 pourcentage de la dose injectée par gramme d'organe; in data set [3] (2 min) it was 31,6±6,8 pourcentage de la dose injectée par gramme d'organe; in data set [3] (5 min), 29,7±5,8 pourcentage de la dose injectée par gramme d'organe; in data set [3] (10 min), 29±5,1 pourcentage de la dose injectée par gramme d'organe. Also, the “Biodistribution Coeur” value is on record as 9 ± 1,4 pourcentage de la dose injectée par gramme d'organe in data set [4] (1 min.), 7,2 ± 0,9 pourcentage de la dose injectée par gramme d'organe in data set [4] (2 min.), 7,0 ± 1 pourcentage de la dose injectée par gramme d'organe in data set [4] (5 min.) and 6,7 ± 1,3 pourcentage de la dose injectée par gramme d'organe in data set [4] (10 min.). For the same compound, the “Biodistribution Poumon” value is given as 66,3 ± 9,2 pourcentage de la dose injectée par gramme d'organe in data set [4] (1 min.), 44,3 ± 8,6 pourcentage de la dose injectée par gramme d'organe in data set [4] (2 min.), 37,9 ± 9,3 pourcentage de la dose injectée par gramme d'organe in data set [4] (5 min.) and 42 ± 8,5 pourcentage de la dose injectée par gramme d'organe in data set [4] (10 min.). For the same compound, the “activité dans le myocarde (plateau)” value in data set [4] (souris, plateau dès la 2ème minute après l'injection) was ~7 % de la dose injectée par gramme d'organe.

For the compound `CC(C)NCC(O)COc1ccc(NC(=O)CCC=CI)cc1` (centres unmarked) [composé 6, 1-[4-(4-iodobut-3-énamido)phénoxy]-3-N-isopropyl aminopropan-2-ol], in data set [5] (Isoprénaline + molécule (10^e+8 min), isoprénaline 10^-8M, test molecule 10^-6M, n=6), the DP/dt max is on record as 973±240 mmHg/min. In addition, the “pourcentage d'inhibition vis-à-vis de l'isoprénaline” value in data set [5] (effet antagoniste, summary) was determined as 116%. For the same compound, the “effect on the action of isoprénaline on dP/dt max” value in data set [5] (isoprénaline 10^-8M + molecule 10^-6M) is “antagonise complètement l'action de l'isoprénaline”. Also, the IC50 in data set [1] (setting [6]) came to 2000 nM; in data set [1] (summary, unit inferred) it was 2040 nM.

In the case of “1-[4-(2-iodoéthylènamido)phénoxy]-3-isopropylaminopropan-2-ol [composé 15]”, the “Coefficient de partage octanol-eau à pH 7” value in data set [2] (pH 7) is listed as 2,91. Further, the “Biodistribution Foie” value in data set [4] (2') was 6 ± 0,75 pourcentage de la dose injectée par gramme d'organe; in data set [4] (5'), 3,6 ± 0,4 pourcentage de la dose injectée par gramme d'organe; in data set [4] (10'), 2,6 ± 0,2 pourcentage de la dose injectée par gramme d'organe; in data set [4] (15"), 4,8 ± 0,2 pourcentage de la dose injectée par gramme d'organe; in data set [4] (15') it was 2,6 ± 0,2 pourcentage de la dose injectée par gramme d'organe; in data set [4] (30') it was 2,1 ± 0,1 pourcentage de la dose injectée par gramme d'organe. In addition, the “Biodistribution Rein” value in data set [4] (2') is given as 20,9 ± 2,5 pourcentage de la dose injectée par gramme d'organe; in data set [4] (5'), 13,3 ± 0,6 pourcentage de la dose injectée par gramme d'organe; in data set [4] (10'), 7,2 ± 0,4 pourcentage de la dose injectée par gramme d'organe; in data set [4] (15"), 17,1 ± 1,2 pourcentage de la dose injectée par gramme d'organe; in data set [4] (15'), 6,3 ± 1 pourcentage de la dose injectée par gramme d'organe; in data set [4] (30'), 4,8 ± 0,6 pourcentage de la dose injectée par gramme d'organe. Further, the “Biodistribution Coeur” value was 16,2 ± 2,1 pourcentage de la dose injectée par gramme d'organe in data set [4] (15"); 3,2 ± 0,2 pourcentage de la dose injectée par gramme d'organe in data set [4] (15'); 2,2 ± 0,15 pourcentage de la dose injectée par gramme d'organe in data set [4] (30'); 14,4 ± 0,9 pourcentage de la dose injectée par gramme d'organe in data set [4] (2 min.); 8,4 ± 0,3 pourcentage de la dose injectée par gramme d'organe in data set [4] (5 min.); 3,6 ± 0,7 pourcentage de la dose injectée par gramme d'organe in data set [4] (10 min.). For the same compound, the “Biodistribution Poumon” value is 55 ± 12 pourcentage de la dose injectée par gramme d'organe in data set [4] (15"); 11,2 ± 2,2 pourcentage de la dose injectée par gramme d'organe in data set [4] (15'); 8,4 ± 0,8 pourcentage de la dose injectée par gramme d'organe in data set [4] (30'); 34 ± 6 pourcentage de la dose injectée par gramme d'organe in data set [4] (2 min.); 25 ± 6 pourcentage de la dose injectée par gramme d'organe in data set [4] (5 min.); 13,2 ± 3,1 pourcentage de la dose injectée par gramme d'organe in data set [4] (10 min.).
